Test results as given in publication PMC6704710, “Preclinical evaluation of 3D185, a novel potent inhibitor of FGFR1/2/3 and CSF-1R, in FGFR-dependent and macrophage-dominant cancer models” (Journal of Experimental & Clinical Cancer Research : CR, 2019).

How the values were obtained:
Assay in all cases: Eurofins kinase panel
Type in all cases: biochemical
Details in all cases: read-out: Inhibition rate (%)
PKCα(h) = target: T1, PKCα(h) (Homo sapiens, UniProt P17252)
T1 construct: purchased Eurofins (KinaseProfiler)

Ret(h) = target: T2, Ret(h) (Homo sapiens, UniProt P07949)
T2 construct: purchased Eurofins (KinaseProfiler)

Ros(h) = target: T3, Ros(h) (Homo sapiens, UniProt P08922)
T3 construct: purchased Eurofins (KinaseProfiler)

ALK(h) = target: T4, ALK(h) (Homo sapiens, UniProt Q9UM73)
T4 construct: purchased Eurofins (KinaseProfiler)

MST1(h) = target: T5, MST1(h) (Homo sapiens, UniProt Q13043)
T5 construct: purchased Eurofins (KinaseProfiler)
T5 sequence (Q13043 1-487): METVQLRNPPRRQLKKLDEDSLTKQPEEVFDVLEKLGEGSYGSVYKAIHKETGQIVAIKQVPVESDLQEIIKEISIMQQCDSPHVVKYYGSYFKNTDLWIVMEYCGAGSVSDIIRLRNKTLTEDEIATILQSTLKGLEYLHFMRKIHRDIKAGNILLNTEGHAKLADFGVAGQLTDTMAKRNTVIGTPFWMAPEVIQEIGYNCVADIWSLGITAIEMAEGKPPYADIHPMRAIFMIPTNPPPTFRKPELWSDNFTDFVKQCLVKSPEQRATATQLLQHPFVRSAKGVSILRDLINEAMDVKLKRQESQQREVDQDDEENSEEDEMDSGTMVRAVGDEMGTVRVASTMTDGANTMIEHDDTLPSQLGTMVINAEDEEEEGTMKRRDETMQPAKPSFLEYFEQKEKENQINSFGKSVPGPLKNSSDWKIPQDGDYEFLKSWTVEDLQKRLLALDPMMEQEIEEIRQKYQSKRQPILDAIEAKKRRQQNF

[1] = target: T6, PI3 Kinase (p110β/p85α)(h) (Homo sapiens, UniProt P42338)
T6 construct: purchased Eurofins (KinaseProfiler)

Pyk2(h) = target: T7, Pyk2(h) (Homo sapiens, UniProt Q14289)
T7 construct: purchased Eurofins (KinaseProfiler)

Tie2(R849W)(h) = target: T8, Tie2(R849W)(h) (Homo sapiens, UniProt Q02763, R849W)
T8 construct: purchased Eurofins (KinaseProfiler)

TYK2(h) = target: T9, TYK2(h) (Homo sapiens, UniProt P29597)
T9 construct: purchased Eurofins (KinaseProfiler)

MRCKβ(h) = target: T10, MRCKβ(h) (Homo sapiens, UniProt Q9Y5S2)
T10 construct: purchased Eurofins (KinaseProfiler)

MEKK2(h) = target: T11, MEKK2(h) (Homo sapiens, UniProt Q9Y2U5)
T11 construct: purchased Eurofins (KinaseProfiler)
T11 sequence (Q9Y2U5 1-619): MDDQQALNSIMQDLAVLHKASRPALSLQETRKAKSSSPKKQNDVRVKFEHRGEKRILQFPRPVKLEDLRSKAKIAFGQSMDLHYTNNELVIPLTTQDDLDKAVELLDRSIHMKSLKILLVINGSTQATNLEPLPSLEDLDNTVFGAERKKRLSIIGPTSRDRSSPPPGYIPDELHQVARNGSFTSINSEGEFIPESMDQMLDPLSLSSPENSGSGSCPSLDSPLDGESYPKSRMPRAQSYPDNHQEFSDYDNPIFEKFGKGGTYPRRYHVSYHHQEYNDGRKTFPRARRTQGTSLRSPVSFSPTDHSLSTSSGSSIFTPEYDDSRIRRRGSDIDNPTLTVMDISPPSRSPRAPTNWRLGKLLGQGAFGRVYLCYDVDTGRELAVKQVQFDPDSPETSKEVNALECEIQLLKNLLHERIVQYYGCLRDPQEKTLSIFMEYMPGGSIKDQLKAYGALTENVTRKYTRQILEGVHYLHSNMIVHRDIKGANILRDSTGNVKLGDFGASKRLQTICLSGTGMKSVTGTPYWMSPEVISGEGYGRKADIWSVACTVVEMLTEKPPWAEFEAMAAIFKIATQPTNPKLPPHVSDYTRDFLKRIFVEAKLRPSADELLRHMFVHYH

Pim-2(h) = target: T12, Pim-2(h) (Homo sapiens, UniProt Q9P1W9)
T12 construct: purchased Eurofins (KinaseProfiler)

CaMKIIδ(h) = target: T13, CaMKIIδ(h) (Homo sapiens, UniProt Q13557)
T13 construct: purchased Eurofins (KinaseProfiler)

DYRK1A(h) = target: T14, DYRK1A(h) (Homo sapiens, UniProt Q13627)
T14 construct: purchased Eurofins (KinaseProfiler)

T8 sequence (Q02763 23-1124 R849W): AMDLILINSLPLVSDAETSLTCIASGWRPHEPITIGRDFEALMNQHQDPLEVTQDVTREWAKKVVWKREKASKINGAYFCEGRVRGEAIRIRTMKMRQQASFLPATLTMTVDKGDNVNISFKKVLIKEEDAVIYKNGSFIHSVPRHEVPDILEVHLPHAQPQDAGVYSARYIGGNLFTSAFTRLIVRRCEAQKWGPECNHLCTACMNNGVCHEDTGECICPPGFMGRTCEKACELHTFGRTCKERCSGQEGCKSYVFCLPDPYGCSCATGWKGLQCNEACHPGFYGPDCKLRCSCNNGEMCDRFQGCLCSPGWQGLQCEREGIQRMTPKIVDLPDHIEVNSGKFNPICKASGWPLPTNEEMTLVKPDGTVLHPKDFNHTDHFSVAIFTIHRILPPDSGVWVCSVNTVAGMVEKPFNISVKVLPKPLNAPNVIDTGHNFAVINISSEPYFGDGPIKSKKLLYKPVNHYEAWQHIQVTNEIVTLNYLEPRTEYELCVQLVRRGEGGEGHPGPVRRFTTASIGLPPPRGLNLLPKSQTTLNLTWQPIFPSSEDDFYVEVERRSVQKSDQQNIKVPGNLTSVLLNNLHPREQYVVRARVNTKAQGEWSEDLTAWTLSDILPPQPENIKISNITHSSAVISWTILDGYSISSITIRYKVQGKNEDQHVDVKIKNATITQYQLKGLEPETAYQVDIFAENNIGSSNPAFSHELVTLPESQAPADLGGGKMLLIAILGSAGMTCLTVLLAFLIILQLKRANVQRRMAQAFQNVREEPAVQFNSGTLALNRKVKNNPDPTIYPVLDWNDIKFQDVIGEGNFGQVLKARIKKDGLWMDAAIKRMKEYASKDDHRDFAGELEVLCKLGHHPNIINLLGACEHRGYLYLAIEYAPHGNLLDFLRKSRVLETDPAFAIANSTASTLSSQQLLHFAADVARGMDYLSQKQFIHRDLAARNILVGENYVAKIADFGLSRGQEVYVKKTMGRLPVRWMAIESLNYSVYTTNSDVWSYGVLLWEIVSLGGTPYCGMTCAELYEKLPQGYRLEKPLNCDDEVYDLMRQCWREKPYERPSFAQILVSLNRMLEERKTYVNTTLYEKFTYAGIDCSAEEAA
T10 sequence (Q9Y5S2 whole entry): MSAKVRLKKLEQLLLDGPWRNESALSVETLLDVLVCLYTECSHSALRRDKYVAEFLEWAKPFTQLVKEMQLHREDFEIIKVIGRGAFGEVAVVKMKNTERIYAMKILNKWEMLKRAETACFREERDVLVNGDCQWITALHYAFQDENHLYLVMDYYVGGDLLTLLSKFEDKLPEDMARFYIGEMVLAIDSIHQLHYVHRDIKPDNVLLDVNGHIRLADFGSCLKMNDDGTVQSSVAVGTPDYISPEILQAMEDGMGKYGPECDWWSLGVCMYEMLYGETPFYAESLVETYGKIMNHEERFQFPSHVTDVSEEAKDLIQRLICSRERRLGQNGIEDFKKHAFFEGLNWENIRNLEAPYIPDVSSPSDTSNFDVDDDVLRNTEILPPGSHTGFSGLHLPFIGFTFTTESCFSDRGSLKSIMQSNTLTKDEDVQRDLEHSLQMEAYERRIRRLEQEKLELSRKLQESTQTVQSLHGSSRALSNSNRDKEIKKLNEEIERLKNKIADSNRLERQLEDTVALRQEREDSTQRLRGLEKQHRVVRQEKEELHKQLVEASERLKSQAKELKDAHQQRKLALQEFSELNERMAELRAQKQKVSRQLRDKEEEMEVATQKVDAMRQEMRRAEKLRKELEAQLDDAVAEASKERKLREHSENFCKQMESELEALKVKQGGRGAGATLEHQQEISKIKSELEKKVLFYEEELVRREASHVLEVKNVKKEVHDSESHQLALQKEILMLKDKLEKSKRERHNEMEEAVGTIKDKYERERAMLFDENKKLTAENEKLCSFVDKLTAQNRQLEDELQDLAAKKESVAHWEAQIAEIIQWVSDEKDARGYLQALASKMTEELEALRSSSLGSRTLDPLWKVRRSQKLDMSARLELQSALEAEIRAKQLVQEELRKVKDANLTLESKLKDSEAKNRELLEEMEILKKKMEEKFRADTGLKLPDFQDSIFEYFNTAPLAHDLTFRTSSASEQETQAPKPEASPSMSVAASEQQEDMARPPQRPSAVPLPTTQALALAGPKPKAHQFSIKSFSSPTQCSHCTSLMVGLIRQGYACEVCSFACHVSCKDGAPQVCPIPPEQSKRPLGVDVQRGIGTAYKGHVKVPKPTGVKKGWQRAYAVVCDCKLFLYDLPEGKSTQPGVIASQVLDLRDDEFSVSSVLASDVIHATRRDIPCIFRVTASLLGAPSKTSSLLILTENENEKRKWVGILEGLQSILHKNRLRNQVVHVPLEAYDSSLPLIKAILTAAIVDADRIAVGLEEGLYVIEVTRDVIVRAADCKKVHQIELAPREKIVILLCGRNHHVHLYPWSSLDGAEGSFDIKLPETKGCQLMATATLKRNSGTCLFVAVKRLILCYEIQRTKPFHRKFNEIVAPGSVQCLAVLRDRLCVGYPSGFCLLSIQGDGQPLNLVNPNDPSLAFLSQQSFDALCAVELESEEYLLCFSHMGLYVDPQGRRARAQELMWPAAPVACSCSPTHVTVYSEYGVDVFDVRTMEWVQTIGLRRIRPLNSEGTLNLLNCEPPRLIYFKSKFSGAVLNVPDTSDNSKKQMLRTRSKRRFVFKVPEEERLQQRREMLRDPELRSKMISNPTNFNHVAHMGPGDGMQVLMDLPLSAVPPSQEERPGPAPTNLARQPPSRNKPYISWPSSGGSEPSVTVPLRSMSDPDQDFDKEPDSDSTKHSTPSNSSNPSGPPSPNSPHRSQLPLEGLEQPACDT
T6 sequence (P42338 whole entry): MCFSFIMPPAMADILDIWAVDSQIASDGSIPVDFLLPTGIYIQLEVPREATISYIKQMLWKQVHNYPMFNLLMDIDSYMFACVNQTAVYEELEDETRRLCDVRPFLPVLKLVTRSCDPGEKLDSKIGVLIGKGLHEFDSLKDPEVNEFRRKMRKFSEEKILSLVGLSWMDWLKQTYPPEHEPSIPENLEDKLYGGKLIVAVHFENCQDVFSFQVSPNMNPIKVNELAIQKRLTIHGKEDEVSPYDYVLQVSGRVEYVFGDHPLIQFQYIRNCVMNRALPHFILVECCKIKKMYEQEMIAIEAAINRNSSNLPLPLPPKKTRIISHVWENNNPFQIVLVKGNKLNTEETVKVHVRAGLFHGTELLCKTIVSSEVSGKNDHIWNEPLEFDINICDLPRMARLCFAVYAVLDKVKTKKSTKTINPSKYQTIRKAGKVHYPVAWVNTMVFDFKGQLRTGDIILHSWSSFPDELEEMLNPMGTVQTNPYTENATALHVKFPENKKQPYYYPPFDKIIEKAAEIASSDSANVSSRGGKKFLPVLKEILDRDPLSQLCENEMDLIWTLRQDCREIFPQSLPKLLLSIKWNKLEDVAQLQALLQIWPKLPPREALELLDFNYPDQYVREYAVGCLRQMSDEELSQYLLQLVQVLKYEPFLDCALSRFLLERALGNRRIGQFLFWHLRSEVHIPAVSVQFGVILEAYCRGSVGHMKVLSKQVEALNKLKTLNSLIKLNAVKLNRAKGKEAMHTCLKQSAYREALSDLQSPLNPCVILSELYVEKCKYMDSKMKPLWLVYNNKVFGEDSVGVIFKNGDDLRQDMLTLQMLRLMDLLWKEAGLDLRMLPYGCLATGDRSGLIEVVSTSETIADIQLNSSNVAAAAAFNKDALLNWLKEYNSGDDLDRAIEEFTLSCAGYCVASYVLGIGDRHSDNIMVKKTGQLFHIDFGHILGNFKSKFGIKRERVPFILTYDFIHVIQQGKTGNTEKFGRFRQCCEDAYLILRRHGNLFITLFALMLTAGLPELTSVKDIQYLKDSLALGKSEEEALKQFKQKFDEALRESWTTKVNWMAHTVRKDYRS
T6 sequence (P27986 whole entry partner): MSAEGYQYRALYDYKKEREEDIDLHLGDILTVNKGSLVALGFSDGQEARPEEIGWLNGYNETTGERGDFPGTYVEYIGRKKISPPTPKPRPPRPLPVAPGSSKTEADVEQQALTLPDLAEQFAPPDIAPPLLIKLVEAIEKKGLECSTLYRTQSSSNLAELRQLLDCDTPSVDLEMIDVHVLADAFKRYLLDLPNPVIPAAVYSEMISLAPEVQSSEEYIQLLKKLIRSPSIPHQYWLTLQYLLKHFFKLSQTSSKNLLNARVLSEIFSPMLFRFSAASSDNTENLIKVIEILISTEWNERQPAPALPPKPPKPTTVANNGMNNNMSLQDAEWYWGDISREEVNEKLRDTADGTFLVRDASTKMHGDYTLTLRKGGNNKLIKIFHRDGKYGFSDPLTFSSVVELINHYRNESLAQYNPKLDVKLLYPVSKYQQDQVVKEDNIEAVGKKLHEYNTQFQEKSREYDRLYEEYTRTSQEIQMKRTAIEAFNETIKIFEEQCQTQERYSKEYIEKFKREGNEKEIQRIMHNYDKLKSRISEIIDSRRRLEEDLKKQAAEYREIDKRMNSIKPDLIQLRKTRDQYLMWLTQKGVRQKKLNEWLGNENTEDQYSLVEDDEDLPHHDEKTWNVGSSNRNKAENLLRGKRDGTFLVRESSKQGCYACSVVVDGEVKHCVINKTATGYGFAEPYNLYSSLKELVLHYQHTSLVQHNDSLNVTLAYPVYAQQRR
T13 sequence (Q13557 whole entry): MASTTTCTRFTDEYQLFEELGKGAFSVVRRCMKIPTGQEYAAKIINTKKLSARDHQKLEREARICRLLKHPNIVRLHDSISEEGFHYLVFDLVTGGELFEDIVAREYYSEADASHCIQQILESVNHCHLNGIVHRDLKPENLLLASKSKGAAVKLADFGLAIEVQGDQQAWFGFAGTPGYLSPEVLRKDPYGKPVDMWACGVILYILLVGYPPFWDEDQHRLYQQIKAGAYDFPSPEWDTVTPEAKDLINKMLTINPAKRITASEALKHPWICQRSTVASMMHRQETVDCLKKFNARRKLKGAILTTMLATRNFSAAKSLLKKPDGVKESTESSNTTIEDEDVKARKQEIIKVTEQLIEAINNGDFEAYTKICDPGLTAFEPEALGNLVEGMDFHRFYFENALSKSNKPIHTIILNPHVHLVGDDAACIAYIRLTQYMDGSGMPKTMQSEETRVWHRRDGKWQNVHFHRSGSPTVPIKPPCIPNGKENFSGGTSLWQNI

In the case of `COc1cc(OC)c(Cl)c(-c2ccc3c(NC(=O)c4ccc(N5CCNC(C)(C)C5)cc4)n[nH]c3n2)c1Cl` [3D185], the inhibition at 0.01 µM (PKCα(h); 10 nM) is reported as -1%, the inhibition at 0.1 µM (PKCα(h); 100 nM) is reported as 1% and the inhibition at 1 µM (PKCα(h); 1000 nM) is reported as 3%. For the same compound, the inhibition at 0.01 µM (Ret(h); 10 nM) was 8%, the inhibition at 0.1 µM (Ret(h); 100 nM) was 27% and the inhibition at 1 µM (Ret(h); 1000 nM) was 80%. For the same compound, the inhibition at 0.01 µM (Ros(h); 10 nM) was -4%, the inhibition at 0.1 µM (Ros(h); 100 nM) was 6% and the inhibition at 1 µM (Ros(h); 1000 nM) was 17%. The inhibition at 0.01 µM (ALK(h); 10 nM) was -1%, the inhibition at 0.1 µM (ALK(h); 100 nM) was 35% and the inhibition at 1 µM (ALK(h); 1000 nM) was 82%. The inhibition at 0.01 µM (MST1(h); 10 nM) was 2%, the inhibition at 0.1 µM (MST1(h); 100 nM) was 11% and the inhibition at 1 µM (MST1(h); 1000 nM) was 32%. For the same compound, the inhibition at 0.01 µM ([1]; 10 nM) was 0%, the inhibition at 0.1 µM ([1]; 100 nM) was 1% and the inhibition at 1 µM ([1]; 1000 nM) was 4%. It also gave an inhibition at 0.01 µM (Pyk2(h); 10 nM) of 2%, an inhibition at 0.1 µM (Pyk2(h); 100 nM) of 24% and an inhibition at 1 µM (Pyk2(h); 1000 nM) of 71%. It also gave an inhibition at 0.01 µM (Tie2(R849W)(h); 10 nM) of -6%, an inhibition at 0.1 µM (Tie2(R849W)(h); 100 nM) of 39% and an inhibition at 1 µM (Tie2(R849W)(h); 1000 nM) of 86%. For the same compound, the inhibition at 0.01 µM (TYK2(h); 10 nM) was 1%, the inhibition at 0.1 µM (TYK2(h); 100 nM) was 14% and the inhibition at 1 µM (TYK2(h); 1000 nM) was 67%. For the same compound, the inhibition at 0.01 µM (MRCKβ(h); 10 nM) was 18%, the inhibition at 0.1 µM (MRCKβ(h); 100 nM) was 8% and the inhibition at 1 µM (MRCKβ(h); 1000 nM) was 21%. The inhibition at 0.01 µM (MEKK2(h); 10 nM) was 34%, the inhibition at 0.1 µM (MEKK2(h); 100 nM) was 85% and the inhibition at 1 µM (MEKK2(h); 1000 nM) was 97%. It also gave an inhibition at 0.01 µM (Pim-2(h); 10 nM) of 11%, an inhibition at 0.1 µM (Pim-2(h); 100 nM) of 3% and an inhibition at 1 µM (Pim-2(h); 1000 nM) of 6%. The inhibition at 0.01 µM (CaMKIIδ(h); 10 nM) was -1%, the inhibition at 0.1 µM (CaMKIIδ(h); 100 nM) was -3% and the inhibition at 1 µM (CaMKIIδ(h); 1000 nM) was -3%. It also gave an inhibition at 0.01 µM (DYRK1A(h); 10 nM) of -4%, an inhibition at 0.1 µM (DYRK1A(h); 100 nM) of 1% and an inhibition at 1 µM (DYRK1A(h); 1000 nM) of 5%.
